In patent publication US5153181A, “Pharmaceutical compositions comprising organic polymers containing inorganic anionic groups and method of prophylaxis and treatment of retrovirus infections in mammals using said compositions” (priority 1986, dated 1992):
Where two headings read alike, the source gives them in different places.

Key:
[1] = molecular target: T1, SR-D-associated reverse transcriptase (Rous sarcoma virus - Schmidt-Ruppin B, UniProt O92956); format: biochemical
T1 construct: alpha/beta heterodimer cut from Gag-Pol polyprotein
T1 sequence (O92956 709-1567): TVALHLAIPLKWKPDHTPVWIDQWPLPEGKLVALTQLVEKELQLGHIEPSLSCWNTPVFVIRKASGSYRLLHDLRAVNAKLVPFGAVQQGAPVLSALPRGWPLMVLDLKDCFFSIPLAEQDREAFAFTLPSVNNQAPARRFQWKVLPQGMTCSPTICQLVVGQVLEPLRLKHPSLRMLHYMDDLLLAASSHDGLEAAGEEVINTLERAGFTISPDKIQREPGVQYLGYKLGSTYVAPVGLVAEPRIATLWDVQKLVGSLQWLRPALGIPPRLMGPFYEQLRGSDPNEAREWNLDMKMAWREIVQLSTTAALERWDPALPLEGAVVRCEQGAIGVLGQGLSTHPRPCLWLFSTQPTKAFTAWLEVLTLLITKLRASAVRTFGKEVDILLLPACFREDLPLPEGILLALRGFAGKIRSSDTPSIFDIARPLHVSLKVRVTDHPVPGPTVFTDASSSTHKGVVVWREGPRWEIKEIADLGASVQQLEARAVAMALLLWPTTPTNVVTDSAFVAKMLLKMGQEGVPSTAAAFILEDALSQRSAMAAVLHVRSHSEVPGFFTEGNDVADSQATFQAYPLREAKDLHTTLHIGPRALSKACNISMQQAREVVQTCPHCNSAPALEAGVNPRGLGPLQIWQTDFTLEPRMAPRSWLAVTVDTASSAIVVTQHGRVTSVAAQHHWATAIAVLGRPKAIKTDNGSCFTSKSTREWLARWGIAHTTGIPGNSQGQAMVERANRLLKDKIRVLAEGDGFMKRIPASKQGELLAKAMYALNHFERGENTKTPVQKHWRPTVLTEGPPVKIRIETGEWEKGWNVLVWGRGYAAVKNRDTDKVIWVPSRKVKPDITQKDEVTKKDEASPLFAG

[2] = cited from earlier work
[3] = LD50 taken from published literature; conditions: in vivo; calculated from MW
Text: The LD50 values are known from the literature.
The results shown in FIGS. 1A and B allow to determine the concentration of the inhibitors which result in 90% or 99% inhibition. The quotient of the LD50 values (taken from published literature) and the inhibitor concentrations indicated in FIG. 1 is the efficiency index shown in Table I.

[4] = known from the literature; cited from earlier work
[5] = poly(rA) template, oligo(dT)10 primer, FIGS. 1A and B

Row | Compound | Inhibition of RNA-dependent DNA synthesis (3H-TMP incorporation) [1, 5] | also measured
1 | O=C(O)P(=O)(O)O [foscarnet] | Somewhat less inhibitory | Toxicity in clinical trials [2]: considerable toxicity; LD50 [3]: 500 mg/kg
2 | Cc1ccc(C(=O)Nc2ccc(S(=O)(=O)O)c3cc(S(=O)(=O)O)cc(S(=O)(=O)O)c23)cc1NC(=O)c1cccc(NC(=O)Nc2cccc(C(=O)Nc3cc(C(=O)Nc4ccc(S(=O)(=O)O)c5cc(S(=O)(=O)O)cc(S(=O)(=O)O)c45)ccc3C)c2)c1 [suramin] | – | Inhibition of RNA-dependent DNA synthesis (3H-TMP incorporation) [1]: Somewhat less inhibitory; LD50 [4]: 40 mg/kg
3 | chondroitin sulfate | Low inhibitory effect | –
4 | dextran | Low inhibitory effect | –
5 | dextran sulfate MW 8,000 | efficient inhibitors | –
6 | dextran sulfate MW 500,000 | efficient inhibitors | –
7 | dextran sulfate MW 5000 | Low inhibitory effect | –
8 | diethylamine ethyl-dextran [DEAE-dextran] | Low inhibitory effect | –
9 | heparin | Low inhibitory effect | –
10 | pentosan polysulfate MW 5,000 | Somewhat less inhibitory | –
